Assay results as given in PMC12711574 (Nature, 2025).
Where two headings read alike, the source gives them in different places.

Tests used:
[1] = target: T1, MOR–Rluc8 and Gαi1β1γ2–GFP2 (Homo sapiens, UniProt P35372+P63096); assay type: cell-based
[2] = target: T1, MOR–Rluc8 and Gαi1β1γ2–GFP2; assay type: cell-based; details: MOR in the apo state, mean ± s.d.

T1 sequence (P63096 2-354 limits assumed): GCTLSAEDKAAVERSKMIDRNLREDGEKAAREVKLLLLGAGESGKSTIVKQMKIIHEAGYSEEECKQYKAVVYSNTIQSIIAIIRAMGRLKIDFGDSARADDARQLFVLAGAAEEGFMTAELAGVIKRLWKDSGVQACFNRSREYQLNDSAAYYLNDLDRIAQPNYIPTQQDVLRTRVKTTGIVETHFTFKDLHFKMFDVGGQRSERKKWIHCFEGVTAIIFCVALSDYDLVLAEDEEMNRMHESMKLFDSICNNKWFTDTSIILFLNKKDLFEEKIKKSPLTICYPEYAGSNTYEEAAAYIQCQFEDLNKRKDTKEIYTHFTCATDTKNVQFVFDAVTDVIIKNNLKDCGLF
T1 sequence (P35372 whole entry): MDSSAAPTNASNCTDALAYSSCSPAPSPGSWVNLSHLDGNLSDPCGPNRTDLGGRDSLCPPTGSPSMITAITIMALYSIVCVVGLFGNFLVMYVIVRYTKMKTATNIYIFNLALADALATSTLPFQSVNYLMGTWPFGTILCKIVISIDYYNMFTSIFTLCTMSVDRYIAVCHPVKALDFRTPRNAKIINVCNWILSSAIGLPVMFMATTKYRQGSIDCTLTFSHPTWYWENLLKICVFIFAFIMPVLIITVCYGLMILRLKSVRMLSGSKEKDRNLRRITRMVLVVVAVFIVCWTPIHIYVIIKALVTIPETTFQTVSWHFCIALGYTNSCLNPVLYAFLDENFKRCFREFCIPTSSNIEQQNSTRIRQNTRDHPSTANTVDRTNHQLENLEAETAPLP
T1 sequence (P62873 2-340 partner limits assumed): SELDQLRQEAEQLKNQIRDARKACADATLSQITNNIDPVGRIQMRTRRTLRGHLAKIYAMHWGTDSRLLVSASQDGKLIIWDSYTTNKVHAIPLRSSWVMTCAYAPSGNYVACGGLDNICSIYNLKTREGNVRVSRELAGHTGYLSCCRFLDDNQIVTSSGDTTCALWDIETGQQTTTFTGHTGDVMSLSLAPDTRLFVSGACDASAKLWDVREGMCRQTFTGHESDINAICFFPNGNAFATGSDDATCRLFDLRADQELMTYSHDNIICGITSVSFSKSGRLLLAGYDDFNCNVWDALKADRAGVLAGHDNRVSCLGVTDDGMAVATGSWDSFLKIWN
T1 sequence (P59768 2-68 partner limits assumed): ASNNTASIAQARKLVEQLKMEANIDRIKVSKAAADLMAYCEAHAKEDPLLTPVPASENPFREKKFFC

C[C@H]1CN(C[C@H](Cc2ccccc2)C(=O)NCC(=O)O)CC[C@@]1(C)c1cccc(O)c1 [Alvimopan]
signal changes [1]: too small to interpret

Nc1nc2c(ncn2[C@@H]2O[C@H](COP(=O)(O)OP(O)(O)=S)[C@@H](O)[C@H]2O)c(=O)[nH]1 [GDPβS]
EC50 ([2]; read-out: GDPβS EC50): 57 ± 14 nM

Nc1nc2c(ncn2[C@@H]2O[C@H](COP(=O)(O)OP(=O)(O)OP(O)(O)=S)[C@@H](O)[C@H]2O)c(=O)[nH]1 [GTPγS]
EC50 ([2]; read-out: GTPγS EC50): 3.8 ± 0.18 nM
